# Measurements: patent US6608082B1, “Treatment of erectile dysfunction using isoquinoline compound melanocortin receptor ligands” (Lion Bioscience AG, priority 1998, dated 2003)
# Where two headings read alike, the source gives them in different places.
# Molecular target: T1, MCR-1 (Homo sapiens, UniProt Q01726)
# T1 construct: expressed in transfected cells; host or cells: HEK 293
# Experiment: Melanocortin receptor binding assay, competition with 125I-HP 467, HEK 293 cells expressing hMCR-1
# Conditions: read-out: MC-1 IC50
# Summary of the method: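 Test compounds compete on intact HEK 293 cells carrying hMCR-1 (2×10^4 per tube) or hMCR-4 (4×10^3 per tube), suspended in PBS, 10% calf serum, 1 mM CaCl2.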
# [1] = competition with 125I-HP 467, HEK 293 cells expressing MCR-1
# [2] = inhibition of binding of 125I-HP 467, HEK 293 cells expressing MCR-1
# T1 sequence (Q01726 whole entry): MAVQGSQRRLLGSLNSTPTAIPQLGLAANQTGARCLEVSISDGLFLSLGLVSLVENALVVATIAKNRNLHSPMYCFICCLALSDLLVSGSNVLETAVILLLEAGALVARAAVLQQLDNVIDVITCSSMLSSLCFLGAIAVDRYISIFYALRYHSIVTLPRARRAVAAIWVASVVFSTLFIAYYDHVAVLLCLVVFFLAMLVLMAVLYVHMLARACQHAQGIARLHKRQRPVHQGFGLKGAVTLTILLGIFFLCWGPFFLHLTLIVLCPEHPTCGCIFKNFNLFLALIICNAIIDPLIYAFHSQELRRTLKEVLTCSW
Compound,IC50 [1] [nM],IC50 [2] [nM]
CCCCNC(CN)CCCN1Cc2ccccc2C(CNCCc2ccccc2)C1c1ccc(-c2ccccc2)cc1 (stereo not shown) [TRG 2411-124],1540,
NCC(CCCN1Cc2ccccc2C(CNCCc2ccccc2)C1c1ccc(-c2ccccc2)cc1)NCC1CCCCC1 (stereo not shown) [TRG 2411-125],820,
CCNC(CN)CCCN1Cc2ccccc2C(CNC2CCCCC2)C1c1ccc(-c2ccccc2)cc1 (stereo not shown) [TRG 2411-127],1480,
CNC(C)CNC(CN)CCCN1Cc2ccccc2C(CNC2CCCCC2)C1c1ccc(-c2ccccc2)cc1 (stereo not shown) [TRG 2411-128],1570,
CNC(CNC(CN)CCCN1Cc2ccccc2C(CNC2CCCCC2)C1c1ccc(-c2ccccc2)cc1)Cc1ccccc1 (stereo not shown) [TRG 2411-130],920,
NCC(CCCN1Cc2ccccc2C(CNC2CCCCC2)C1c1ccc(-c2ccccc2)cc1)N1CCCC1 (stereo not shown) [TRG 2411-131],230,
NCC(CCCN1Cc2ccccc2C(CNC2CCCCC2)C1c1ccc(-c2ccccc2)cc1)NCC1CCCCC1 (stereo not shown) [TRG 2411-134],1480,
NCC(CCCN1Cc2ccccc2C(CNC2CCCCC2)C1c1ccc(-c2ccccc2)cc1)NCc1ccccc1 (stereo not shown) [TRG 2411-135],1980,
CNC(CN)CCCN1Cc2ccccc2C(CN)C1c1ccc(-c2ccccc2)cc1 (stereo not shown) [TRG 2411-137],1620,
CCNC(CN)CCCN1Cc2ccccc2C(CN)C1c1ccc(-c2ccccc2)cc1 (stereo not shown) [TRG 2411-138],1270,
NCC(CCCN1Cc2ccccc2C(CN)C1c1ccc(-c2ccccc2)cc1)NCCc1ccccc1 (stereo not shown) [TRG 2411-139],1460,
CNCCNC(CN)CCCN1Cc2ccccc2C(CN)C1c1ccc(-c2ccccc2)cc1 (stereo not shown) [TRG 2411-140],1360,
NCCNC(CN)CCCN1Cc2ccccc2C(CN)C1c1ccc(-c2ccccc2)cc1 (stereo not shown) [TRG 2411-141],1150,
CNC(CNC(CN)CCCN1Cc2ccccc2C(CN)C1c1ccc(-c2ccccc2)cc1)Cc1ccccc1 (stereo not shown) [TRG 2411-144],1220,
CCNc1ccc(C2C(CNCCc3ccccc3)c3ccccc3CN2CCCC(CN)NCCN)cc1 (stereo not shown) [TRG 2411-163],,220
CCCCNC(CN)CCCN1Cc2ccccc2C(CNC2CCCCC2)C1c1ccc(NCC)cc1 (stereo not shown) [TRG 2411-165],,90
CCNc1ccc(C2C(CNC3CCCCC3)c3ccccc3CN2CCCC(CN)N2CCCC2)cc1 (stereo not shown) [TRG 2411-166],,40
CCNc1ccc(C2C(CNC3CCCCC3)c3ccccc3CN2CCCC(CN)NCCc2ccc(OC)cc2)cc1 (stereo not shown) [TRG 2411-168],,230
CCNc1ccc(C2C(CNC3CCCCC3)c3ccccc3CN2CCCC(CN)NCc2ccc(Cl)cc2)cc1 (stereo not shown) [TRG 2411-170],,130
CCNc1ccc(C2C(CNC3CCCCC3)c3ccccc3CN2CCCC(CN)NCc2ccc(OC)cc2)cc1 (stereo not shown) [TRG 2411-171],,150
CCNc1ccc(C2C(CNC3CCCCC3)c3ccccc3CN2CCCC(CN)NCCc2ccc3ccccc3c2)cc1 (stereo not shown) [TRG 2411-172],,220
CCNc1ccc(C2C(CN)c3ccccc3CN2CCCC(CN)NC)cc1 (stereo not shown) [TRG 2411-175],,290
CCCCNC(CN)CCCN1Cc2ccccc2C(CN)C1c1ccc(NCC)cc1 (stereo not shown) [TRG 2411-177],,110
CCNc1ccc(C2C(CN)c3ccccc3CN2CCCC(CN)NCCc2ccc(OC)cc2)cc1 (stereo not shown) [TRG 2411-181],,110
CCNc1ccc(C2C(CN)c3ccccc3CN2CCCC(CN)NCc2ccccc2)cc1 (stereo not shown) [TRG 2411-182],,200
CCNc1ccc(C2C(CN)c3ccccc3CN2CCCC(CN)NCc2ccc(Cl)cc2)cc1 (stereo not shown) [TRG 2411-183],,130

Compound,IC50 [1] [nM],IC50 [2] [nM]
CCNc1ccc(C2C(CN)c3ccccc3CN2CCCC(CN)NCCN)cc1 (stereo not shown) [TRG 2411-187],,60
CCCCNc1ccc(C2C(CNCCc3ccccc3)c3ccccc3CN2CCCC(N)CN)cc1 (stereo not shown) [TRG 2411-188],,130
CCCCNc1ccc(C2C(CNCCc3ccccc3)c3ccccc3CN2CCCC(CN)NC)cc1 (stereo not shown) [TRG 2411-189],,120
CCCCNc1ccc(C2C(CNCCc3ccccc3)c3ccccc3CN2CCCC(CN)NCc2ccc(Cl)cc2)cc1 (stereo not shown) [TRG 2411-197],,80
CCCCNc1ccc(C2C(CNCCc3ccccc3)c3ccccc3CN2CCCC(CN)NCc2ccc(OC)cc2)cc1 (stereo not shown) [TRG 2411-198],,120
CCCCNc1ccc(C2C(CNCCc3ccccc3)c3ccccc3CN2CCCC(CN)NCCc2ccc3ccccc3c2)cc1 (stereo not shown) [TRG 2411-199],,170
CCCCNc1ccc(C2C(CNCCc3ccccc3)c3ccccc3CN2CCCC(CN)NCCN)cc1 (stereo not shown) [TRG 2411-201],,300
CCCCNc1ccc(C2C(CNC3CCCCC3)c3ccccc3CN2CCCC(N)CN)cc1 (stereo not shown) [TRG 2411-202],,220
CCCCNc1ccc(C2C(CNC3CCCCC3)c3ccccc3CN2CCC[C@@H](CN)NC)cc1 (stereo partly shown) [TRG 2411-203],,170
CCCCNc1ccc(C2C(CNC3CCCCC3)c3ccccc3CN2CCCC(CN)NCC)cc1 (stereo not shown) [TRG 2411-204],,150
CCCCNc1ccc(C2C(CNC3CCCCC3)c3ccccc3CN2CCCC(CN)NCCCC)cc1 (stereo not shown) [TRG 2411-205],,250
CCCCNc1ccc(C2C(CNC3CCCCC3)c3ccccc3CN2CCCC(CN)NCCc2ccccc2)cc1 (stereo not shown) [TRG 2411-207],,190
CCCCNc1ccc(C2C(CNC3CCCCC3)c3ccccc3CN2CCCC(CN)NCc2ccc(Cl)cc2)cc1 (stereo not shown) [TRG 2411-211],,100
CCCCNc1ccc(C2C(CNC3CCCCC3)c3ccccc3CN2CCCC(CN)NCCC2CCCCC2)cc1 (stereo not shown) [TRG 2411-214],,80
CCCCNc1ccc(C2C(CN)c3ccccc3CN2CCCC(N)CN)cc1 (stereo not shown) [TRG 2411-216],,110
CCCCNc1ccc(C2C(CN)c3ccccc3CN2CCCC(CN)NC)cc1 (stereo not shown) [TRG 2411-217],,90
CCCCCNc1ccc(C2C(CNCCc3ccccc3)c3ccccc3CN2CCCCC(CN)NC)cc1 (stereo not shown) [TRG 2412-1],,380
CCCCCNc1ccc(C2C(CNCCc3ccccc3)c3ccccc3CN2CCCCC(CN)NCCc2ccccc2)cc1 (stereo not shown) [TRG 2412-2],,470
CCCCCNc1ccc(C2C(CNCCc3ccccc3)c3ccccc3CN2CCCCC(CN)NCc2ccccc2)cc1 (stereo not shown) [TRG 2412-3],,360
CCOc1ccc(C2C(CNCCc3ccccc3)c3ccccc3CN2CCCCC(CN)NCCc2ccccc2)cc1 (stereo not shown) [TRG 2412-5],,490
CCOc1ccc(C2C(CNCCc3ccccc3)c3ccccc3CN2CCCCC(CN)NCc2ccccc2)cc1 (stereo not shown) [TRG 2412-6],,590
CCCOc1ccc(C2C(CNCCc3ccccc3)c3ccccc3CN2CCCCC(CN)NC)cc1 (stereo not shown) [TRG 2412-7],,420
CCCOc1ccc(C2C(CNCCc3ccccc3)c3ccccc3CN2CCCCC(CN)NCCc2ccccc2)cc1 (stereo not shown) [TRG 2412-8],,830
CCCOc1ccc(C2C(CNCCc3ccccc3)c3ccccc3CN2CCCCC(CN)NCc2ccccc2)cc1 (stereo not shown) [TRG 2412-9],,570
CCCCOc1ccc(C2C(CNCCc3ccccc3)c3ccccc3CN2CCCCC(CN)NC)cc1 (stereo not shown) [TRG 2412-10],,310
CCCCOc1ccc(C2C(CNCCc3ccccc3)c3ccccc3CN2CCCCC(CN)NCCc2ccccc2)cc1 (stereo not shown) [TRG 2412-11],,820

Compound,IC50 [1] [nM],IC50 [2] [nM]
CCCCOc1ccc(C2C(CNCCc3ccccc3)c3ccccc3CN2CCCCC(CN)NCc2ccccc2)cc1 (stereo not shown) [TRG 2412-12],,540
CCCCCc1ccc(C2C(CNCCc3ccccc3)c3ccccc3CN2CCCCC(CN)NC)cc1 (stereo not shown) [TRG 2412-13],,450
CCCCCc1ccc(C2C(CNCCc3ccccc3)c3ccccc3CN2CCCCC(CN)NCCc2ccccc2)cc1 (stereo not shown) [TRG 2412-14],,880
CCCCCc1ccc(C2C(CNCCc3ccccc3)c3ccccc3CN2CCCCC(CN)NCc2ccccc2)cc1 (stereo not shown) [TRG 2412-15],,750
CCCCCNc1ccc(C2C(CNCCc3ccccc3)c3ccccc3CN2CCCC(CN)NCc2ccccc2)cc1 (stereo not shown) [TRG 2412-18],,190
CCOc1ccc(C2C(CNCCc3ccccc3)c3ccccc3CN2CCCC(CN)NC)cc1 (stereo not shown) [TRG 2412-19],,160
CCOc1ccc(C2C(CNCCc3ccccc3)c3ccccc3CN2CCCC(CN)NCCc2ccccc2)cc1 (stereo not shown) [TRG 2412-20],,150
CCCOc1ccc(C2C(CNCCc3ccccc3)c3ccccc3CN2CCCC(CN)NC)cc1 (stereo not shown) [TRG 2412-22],,200
CCCOc1ccc(C2C(CNCCc3ccccc3)c3ccccc3CN2CCCC(CN)NCCc2ccccc2)cc1 (stereo not shown) [TRG 2412-23],,350
CCCOc1ccc(C2C(CNCCc3ccccc3)c3ccccc3CN2CCCC(CN)NCc2ccccc2)cc1 (stereo not shown) [TRG 2412-24],,410
CCCCOc1ccc(C2C(CNCCc3ccccc3)c3ccccc3CN2CCCC(CN)NCCc2ccccc2)cc1 (stereo not shown) [TRG 2412-26],,200
CCCCOc1ccc(C2C(CNCCc3ccccc3)c3ccccc3CN2CCCC(CN)NCc2ccccc2)cc1 (stereo not shown) [TRG 2412-27],,250
CCCCCc1ccc(C2C(CNCCc3ccccc3)c3ccccc3CN2CCCC(CN)NC)cc1 (stereo not shown) [TRG 2412-28],,270
CCCCCc1ccc(C2C(CNCCc3ccccc3)c3ccccc3CN2CCCC(CN)NCCc2ccccc2)cc1 (stereo not shown) [TRG 2412-29],,500
CNCCNC(CN)CCCCN1Cc2ccccc2C(CNCCc2ccccc2)C1c1ccc(-c2ccccc2)cc1 (stereo not shown) [TRG 2413-1],,440
CNCCNC(CN)CCCCN1Cc2ccccc2C(CN)C1c1ccc(-c2ccccc2)cc1 (stereo not shown) [TRG 2413-2],,540
CCNc1ccc(C2C(CN)c3ccccc3CN2CCCCC(CN)NCCNC)cc1 (stereo not shown) [TRG 2413-3],,1560
CCNc1ccc(C2C(CNCCc3ccccc3)c3ccccc3CN2CCCCC(CN)NCCNC)cc1 (stereo not shown) [TRG 2413-4],,340
CNC(CN)CCCCN1Cc2ccccc2C(CN)C1c1ccc([N+](=O)[O-])cc1 (stereo not shown) [TRG 2413-6],,6510
NCCNC(CN)CCCN1Cc2ccccc2C(CN)C1c1ccc(-c2ccccc2)cc1 (stereo not shown) [TRG 2413-7],,1540
CNC(CN)CCCN1Cc2ccccc2C(CN)C1c1ccc(-c2ccccc2)cc1 (stereo not shown) [TRG 2413-8],,1840
CCNc1ccc(C2C(CNC3CCCCC3)c3ccccc3CN2CCCC(CN)NCCc2ccccc2)cc1 (stereo not shown) [TRG 2413-10],,310
CCNc1ccc(C2C(CN)c3ccccc3CN2CCCC(CN)NCCc2ccccc2)cc1 (stereo not shown) [TRG 2413-11],,130
CCNc1ccc(C2C(CNCCc3ccccc3)c3ccccc3CN2CCCC(CN)NC)cc1 (stereo not shown) [TRG 2413-12],,190
